Reference: ChEMBL document CHEMBL2163339, “Discovery of potent inhibitors of human and mouse fatty acid amide hydrolases” (J Med Chem, 2012)
Calls of active or inactive are those of the source.

Tested on: Rattus norvegicus
Assay: Analgesic activity in rat assessed as increase in paw withdrawal threshold at 50 mg/kg, po
Format: functional, organism-based
Parameters: dose 50 mg/kg

NC(=O)c1cccc(-c2cccc(OC(=O)NC3CCCCC3)c2)c1
Activity: inactive
